Measured values reported in patent publication US11224601B1, “Compounds that inhibits MCL-1 protein” (priority 2017, dated 2022).
Read-outs that look alike come from different tables or passages of the source.

What was measured:
[1] = molecular target: recombinant human Mcl-1 (Mcl-1/Bim interaction) (Homo sapiens (Human), UniProt Q07820); test: biochemical; assay type: binding; conditions: cell free Mcl-1:Bim TR-FRET; read-out: Mcl-1 HTRF IC50
[2] = tested on: OPM-2 human multiple myeloma cell line; test: Cell Viability Assay (OPM-2 10 FBS), CellTiter-Glo; assay type: cell-based
Experimental: Cell Viability Assay (OPM-2 10 FBS)
The human multiple myeloma cell line, OPM-2, was cultured in complete growth medium containing RPMI 1640 and 10% fetal bovine serum (FBS). Cells were seeded into 384-well plates at 3000 cells/well density in complete growth medium containing 10% FBS, and incubated for 16 h with serially diluted test compounds in a 37° C. incubator with 5% CO2. Cell viability was tested using CellTiter-Glo® assay (Promega, Madison, Wis.) according to the manufacturer recommendations. Luminescence was determined using an EnVision® Multilabel plate reader 25 min after the addition of detection reagent. IC50 values were then calculated with Xlfit using a logistical 4-parameter fit model in GraphPad Prism (GraphPad Software, San Diego, Calif.) or in Genedata Screener® (Genedata, Basel, Switzerland).

[3] = Homo sapiens, OPM-2, 16 h, read-out: OPM-2 10% FBS IC50 IP (μM), OPM-2 cells, 10% FBS, 16 h, CellTiter-Glo

Chain of recombinant human Mcl-1 (Mcl-1/Bim interaction) (Q07820 171-327): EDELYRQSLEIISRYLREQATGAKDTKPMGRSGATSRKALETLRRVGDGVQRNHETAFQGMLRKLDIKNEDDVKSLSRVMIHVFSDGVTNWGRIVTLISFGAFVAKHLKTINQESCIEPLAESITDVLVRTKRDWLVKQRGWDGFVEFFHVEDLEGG

CO[C@@]1(CN2CCN3CCCC[C@@H]3C2)/C=C/C[C@H](C)[C@@H](Cc2ccccc2)S(=O)(=O)NC(=O)c2ccc3c(c2)N(C[C@@H]2CC[C@H]21)C[C@@]1(CCCc2cc(Cl)ccc21)CO3 (single isomer, unassigned) [Example 104]
IC50 [1]: 1.12 nM
IC50 [2, 3]: 0.782 µM

CO[C@@]1(CN2CCN3CCN(C)CC3C2)/C=C/C[C@H](C)[C@@H](C)S(=O)(=O)NC(=O)c2ccc3c(c2)N(C[C@@H]2CC[C@H]21)C[C@@]1(CCCc2cc(Cl)ccc21)CO3 (single isomer, unassigned) [Example 216]
IC50 [1]: 0.49 nM
IC50 [2, 3]: 0.183 µM

CO[C@@]1(CN2CCN3CCC[C@@H]3C2)/C=C/C[C@H](C)[C@@H](C)S(=O)(=O)NC(=O)c2ccc3c(c2)N(C[C@@H]2CC[C@H]21)C[C@@]1(CCCc2cc(Cl)ccc21)CO3 (stereo in doubt) [Example 80]
IC50 [1]: 1.55 nM
IC50 [2, 3]: 0.205 µM

CO[C@]1(CN2CCN3CCCCC[C@@H]3C2)/C=C/C[C@H](C)[C@@H](C)S(=O)(=O)NC(=O)c2ccc3c(c2)N(C[C@@H]2CC[C@H]21)C[C@@]1(CCCc2cc(Cl)ccc21)CO3 (stereo in doubt) [Example 87]
IC50 [1]: 0.127 nM
IC50 [2, 3]: 0.141 µM

CO[C@]1(CN2CCN3CCN(C(C)=O)C[C@@H]3C2)/C=C/C[C@H](C)[C@@H](C)S(=O)(=O)NC(=O)c2ccc3c(c2)N(C[C@@H]2CC[C@H]21)C[C@@]1(CCCc2cc(Cl)ccc21)CO3 (stereo in doubt) [Example 218]
IC50 [1]: 0.142 nM
IC50 [2, 3]: 0.092 µM

CO[C@@]1(CN2CCN([C@H]3CCOC3)CC2)/C=C/C[C@H](C)[C@@H](C)S(=O)(=O)NC(=O)c2ccc3c(c2)N(C[C@@H]2CC[C@H]21)C[C@@]1(CCCc2cc(Cl)ccc21)CO3 (stereo in doubt) [Example 275]
IC50 [1]: 0.176 nM
IC50 [2, 3]: 0.082 µM

CO[C@]1(CN2CCN3CC[C@H](F)C[C@@H]3C2)/C=C/C[C@H](C)[C@@H](C)S(=O)(=O)NC(=O)c2ccc3c(c2)N(C[C@@H]2CC[C@H]21)C[C@@]1(CCCc2cc(Cl)ccc21)CO3 (stereo in doubt) [Example 293]
IC50 [1]: 0.242 nM
IC50 ([2]; read-out: OPM-2 10% FBS IC50 IP, OPM-2 cells, 10% FBS, 16 h, CellTiter-Glo): 0.207 µM

CCO[C@]1(CN2CCN(C(C)C)[C@H](C)C2)/C=C/C[C@H](C)[C@@H](C)S(=O)(=O)NC(=O)c2ccc3c(c2)N(C[C@@H]2CC[C@H]21)C[C@@]1(CCCc2cc(Cl)ccc21)CO3 [Example 9, (1S,3′R,6′R,7′R,8′E,11′S,12′R)-6-chloro-7′-ethoxy-11′,12′-dimethyl-7′-(((3R)-3-methyl-4-(1-methylethyl)-1-piperazinyl)methyl)-3,4-dihydro-2H,15′H-spiro[naphthalene-1,22′-[20]oxa[13]thia[1,14]diazatetracyclo[14.7.2.0˜3,6˜.0˜19,24˜]pentacosa[8,16,18,24]tetraen]-15′-one 13′,13′-dioxide]
IC50 [1]: 0.078 nM
IC50 [2, 3]: 0.05 µM

CCO[C@]1(CN2CCN(C(C)C)[C@H](C)C2)/C=C/C[C@H](C)[C@@H](CCOC)S(=O)(=O)NC(=O)c2ccc3c(c2)N(C[C@@H]2CC[C@H]21)C[C@@]1(CCCc2cc(Cl)ccc21)CO3 [Example 17, (1S,3′R,6′R,7′R,8′E,11′S,12′R)-6-chloro-7′-ethoxy-12′-(2-methoxyethyl)-11′-methyl-7′-(((3R)-3-methyl-4-(1-methylethyl)-1-piperazinyl)methyl)-3,4-dihydro-2H,15′H-spiro[naphthalene-1,22′-[20]oxa[13]thia[1,14]diazatetracyclo[14.7.2.0˜3,6˜.0˜19,24˜]pentacosa[8,16,18,24]tetraen]-15′-one 13′,13′-dioxide]
IC50 [1]: 0.073 nM
IC50 [2, 3]: 0.034 µM

COCC[C@@H]1[C@@H](C)C/C=C/[C@](CN2CCN3CCOC[C@@H]3C2)(OC)[C@@H]2CC[C@H]2CN2C[C@@]3(CCCc4cc(Cl)ccc43)COc3ccc(nc32)C(=O)NS1(=O)=O [Example 20, (1S,3′R,6′R,7′S,8′E,11′S,12′R)-6-chloro-7′-((9aS)-hexahydropyrazino[2,1-c][1,4]oxazin-8(1H)-ylmethyl)-7′-methoxy-12′-(2-methoxyethyl)-11′-methyl-3,4-dihydro-2H,15′H-spiro[naphthalene-1,22′-[20]oxa[13]thia[1,14,25]triazatetracyclo[14.7.2.0˜3,6˜.0˜19,24˜]pentacosa[8,16,18,24]tetraen]-15′-one 13′,13′-dioxide]
IC50 [1]: 0.082 nM
IC50 [2, 3]: 0.022 µM

COCCO[C@@]1(CN2CCN3CCCC[C@@H]3C2)/C=C/C[C@H](C)[C@@H](C)S(=O)(=O)NC(=O)c2ccc3c(c2)N(C[C@@H]2CC[C@H]21)C[C@@]1(CCCc2cc(Cl)ccc21)CO3 [Example 151, (1S,3′R,6′R,7′S,8′E,11′S,12′R)-6-chloro-7′-(2-methoxyethoxy)-11′,12′-dimethyl-7′-((9aR)-octahydro-2H-pyrido[1,2-a]pyrazin-2-ylmethyl)-3,4-dihydro-2H,15′H-spiro[naphthalene-1,22′-[20]oxa[13]thia[1,14]diazatetracyclo[14.7.2.0˜3,6˜.0˜19,24˜]pentacosa[8,16,18,24]tetraen]-15′-one 13′,13′-dioxide]
IC50 [1]: 0.843 nM
IC50 [2, 3]: 0.462 µM

CO[C@@]1(C(=O)N(C)C)/C=C/C[C@H](C)[C@@H](C)S(=O)(=O)NC(=O)c2ccc3c(c2)N(C[C@@H]2CC[C@H]21)C[C@@]1(CCCc2cc(Cl)ccc21)CO3 [Example 176, (1S,3′R,6′R,7′S,8′E,11′S,12′R)-6-chloro-7′-methoxy-N,N,11′,12′-tetramethyl-15′-oxo-3,4-dihydro-2H-spiro[naphthalene-1,22′-[20]oxa[13]thia[1,14]diazatetracyclo[14.7.2.0˜3,6˜.0˜19,24˜]pentacosa[8,16,18,24]tetraene]-7′-carboxamide 13′,13′-dioxide]
IC50 [1]: 0.118 nM
IC50 [2, 3]: 0.149 µM

CO[C@]1(C(=O)N(C)C)/C=C/C[C@H](C)[C@@H](C)S(=O)(=O)NC(=O)c2ccc3c(c2)N(C[C@@H]2CC[C@H]21)C[C@@]1(CCCc2cc(Cl)ccc21)CO3 [Example 177, (1S,3′R,6′R,7′R,8′E,11′S,12′R)-6-chloro-7′-methoxy-N,N,11′,12′-tetramethyl-15′-oxo-3,4-dihydro-2H-spiro[naphthalene-1,22′-[20]oxa[13]thia[1,14]diazatetracyclo[14.7.2.0˜3,6˜.0˜19,24˜]pentacosa[8,16,18,24]tetraene]-7′-carboxamide 13′,13′-dioxide]
IC50 [1]: 0.153 nM
IC50 [2, 3]: 0.615 µM

C[C@@H]1[C@@H](C)C/C=C/[C@@](O)(CN2CCN3CCOC[C@@H]3C2)[C@@H]2CC[C@H]2CN2C[C@@]3(CCCc4cc(Cl)ccc43)COc3ccc(cc32)C(=O)NS1(=O)=O [Example 193, (1S,3′R,6′R,7′S,8′E,11′S,12′R)-6-chloro-7′-((9aS)-hexahydropyrazino[2,1-c][1,4]oxazin-8(1H)-ylmethyl)-7′-hydroxy-11′,12′-dimethyl-3,4-dihydro-2H,15′H-spiro[naphthalene-1,22′-[20]oxa[13]thia[1,14]diazatetracyclo[14.7.2.0˜3,6˜.0˜19,24˜]pentacosa[8,16,18,24]tetraen]-15′-one 13′,13′-dioxide]
IC50 [1]: 0.096 nM
IC50 [2, 3]: 0.023 µM

C[C@@H]1[C@@H](C)C/C=C/[C@](O)(CN2CCN3CCOC[C@@H]3C2)[C@@H]2CC[C@H]2CN2C[C@@]3(CCCc4cc(Cl)ccc43)COc3ccc(cc32)C(=O)NS1(=O)=O [Example 213, (1S,3′R,6′R,7′R,8′E,11′S,12′R)-6-chloro-7′-((9aS)-hexahydropyrazino[2,1-c][1,4]oxazin-8(1H)-ylmethyl)-7′-hydroxy-11′,12′-dimethyl-3,4-dihydro-2H,15′H-spiro[naphthalene-1,22′-[20]oxa[13]thia[1,14]diazatetracyclo[14.7.2.0˜3,6˜.0˜19,24˜]pentacosa[8,16,18,24]tetraen]-15′-one 13′,13′-dioxide]
IC50 [1]: 0.239 nM
IC50 [2, 3]: 0.4 µM

CC(C)CO[C@@]1(CN2CCN(C3COC3)CC2)/C=C/C[C@H](C)[C@@H](C)S(=O)(=O)NC(=O)c2ccc3c(c2)N(C[C@@H]2CC[C@H]21)C[C@@]1(CCCc2cc(Cl)ccc21)CO3 [Example 348, (1S,3′R,6′R,7′S,8′E,11′S,12′R)-6-chloro-11′,12′-dimethyl-7′-(2-methylpropoxy)-7′-((4-(3-oxetanyl)-1-piperazinyl)methyl)-3,4-dihydro-2H,15′H-spiro[naphthalene-1,22′-[20]oxa[13]thia[1,14]diazatetracyclo[14.7.2.0˜3,6˜.0˜19,24˜]pentacosa[8,16,18,24]tetraen]-15′-one 13′,13′-dioxide]
IC50 [1]: 2.62 nM
IC50 [2, 3]: 5.36 µM

CO[C@]1(CN2CCN3CCCC[C@@H]3C2)/C=C/C[C@H](C)[C@@H](CCO)S(=O)(=O)NC(=O)c2ccc3c(c2)N(C[C@@H]2CC[C@H]21)C[C@@]1(CCCc2cc(Cl)ccc21)CO3 [Example 358, (1S,3′R,6′R,7′R,8′E,11′S,12′R)-6-chloro-12′-(2-hydroxyethyl)-7′-methoxy-11′-methyl-7′-((9aR)-octahydro-2H-pyrido[1,2-a]pyrazin-2-ylmethyl)-3,4-dihydro-2H,15′H-spiro[naphthalene-1,22′-[20]oxa[13]thia[1,14]diazatetracyclo[14.7.2.0˜3,6˜.0˜19,24˜]pentacosa[8,16,18,24]tetraen]-15′-one 13′,13′-dioxide]
IC50 [1]: 0.066 nM
IC50 [2, 3]: 0.144 µM
